The text below walks through data of patent US12533095B1, “Airway mucus scoring system” (The Regents of the University of California, priority 2016, dated 2026).

Experiment [1] can be described thus: Maximum bronchodilator reversibility test (MBRT). Type of experiment: in vivo, human. The protocol:
(§1) Treatment response to bronchodilators and systemic corticosteroids: Maximum Bronchodilator Reversibility tests (MBRT's) were performed on baseline visits 2 and 3. MBRT was determined by measuring spirometry before and after 360-720 meg of albuterol sulfate delivered by metered-dose inhaler. Patients also underwent a systemic corticosteroid response test (SCRT), which involved an intramuscular injection of triamcinolone acetonide (40 mg) on visit 2 and repeat characterization including MBRT and blood draw on visit 3 (2-4 weeks later). Maximum bronchodilator reversibility test (MBRT): Subjects were asked to hold their bronchodilator medications prior to spirometry testing. Following baseline spirometry, 4 puffs of albuterol (360 mcg) were administered. Spirometry was then repeated 15 minutes later. If the change in FEV1 from the spirometry maneuver performed after 4 puffs was greater than 5%, an additional 2 puffs of albuterol (180 mcg) were then administered and spirometry was repeated again 15 minutes later. If the change in FEV1 after 6 puffs was greater than 5%, an additional 2 puffs of albuterol were administered with repeat spirometry after an additional 15 minutes. If the change was less than 5% after 4 or 6 puffs of albuterol, the procedure was stopped and the last maneuver was taken to be the highest achievable measure. No more than 8 puffs of albuterol were administered as part of the MBRT procedure. MBRT was measured on baseline visits 2 and 3 (FIG. 5).

A short description of experiment [2]: Systemic corticosteroid responsiveness test (SCRT). The experiment is classed as in vivo, human. The protocol:
Systemic Corticosteroid Responsiveness Test (SCRT): Patients were given an intramuscular injection of triamcinolone acetonide (40 mg) following complete characterization on visit 2. Repeat characterization post steroid injection (excluding MDCT), was carried out on visit 3 (2-4 weeks later) (FIG. 5). Treatment response to bronchodilators and systemic corticosteroids: Maximum Bronchodilator Reversibility tests (MBRT's) were performed on baseline visits 2 and 3. MBRT was determined by measuring spirometry before and after 360-720 meg of albuterol sulfate delivered by metered-dose inhaler. Patients also underwent a systemic corticosteroid response test (SCRT), which involved an intramuscular injection of triamcinolone acetonide (40 mg) on visit 2 and repeat characterization including MBRT and blood draw on visit 3 (2-4 weeks later). Induced Sputum: Sputum induction was done on visits 2 and 3. For safety, induced sputum was only collected from patients whose FEV1 was >50% predicted after albuterol pretreatment (360 μg). Total and differential cell counts were quantified in a central laboratory (Wake Forest University) using methods previously described^5,6. Gene expression for type 2 cytokines [interleukin (IL)-4, IL-5, and IL-13] and for airway gel-forming mucins (MUC5AC, MUC5B) were measured in RNA isolated from induced sputum cell pellets using real-time Taqman-based quantitative PCR (qPCR) 7 as described herein (including Table 3). RNA isolation and qPCR were done in a central laboratory (University of California at San Francisco).

The nature of experiment [3]: Bronchodilator reversibility testing repeated after intramuscular corticosteroid (combined SCRT and MBRT). The settings on record: patients with high mucus scores; bronchodilator reversibility testing repeated after intramuscular steroid. Type of experiment: in vivo, human. The protocol:
as §1, with “Systemic Corticosteroid Responsiveness Test (SCRT): Patients were given an intramuscular injection of triamcinolone acetonide (40 mg) following complete characterization on visit 2. Repeat characterization post steroid injection (excluding MDCT), was carried out on visit 3 (2-4 weeks later) (FIG. 5). Treatment” for “Treatment”, “If the change in FEV1 after 6 puffs was greater than 5%, an additional 2 puffs of albuterol were administered with repeat spirometry after an additional 15 minutes. If the change was less than 5% after 4 or 6 puffs of albuterol, the procedure was stopped and the last maneuver was taken to be the highest achievable measure. No more than 8 puffs of albuterol were administered as part of the MBRT procedure.” left out

Experiment [4] relates to primary human airway epithelial cells. In words: Apical secretion of Eotaxin-3 (CCL26) at air liquid interface. The experiment is classed as cell-based. The note with it: 10 ng/ml in basolateral media for 4 days; vs untreated control (FIG. 11E). An excerpt:
Apical secretion of Eotaxin-3 (CCL26): Human airway epithelial cells (AECs) were isolated from tracheas collected from cadaveric lung donors from the California Donor Network as a part of a separate study (Gordon et al., Proc Natl Acad Sci USA. 113, 8765-8770. doi: 8710.1073/pnas.1601914113. Epub 160191216 Jul. 1601914118. (2016)). Cells were expanded in 5% FCS in DMEM/F12 supplemented with a rho kinase inhibitor (Y-27632 SellekChem) to promote proliferation (Liu et al., Am J Pathol. 180, 599-607. doi: 510.1016/j.ajpath.2011.1010.1036. Epub 211 Dec. 1018. (2012)). Once cells reached 90% confluency flasks were washed and cells trypsinized with TrypLE (Gibco). Subconfluent cells were plated to submerged transwell inserts, using the modified Schlegel culture conditions previously described (Chu et al., Gene Ther. 22, 822-829. doi: 810.1038/gt.2015.1053. Epub 2015 July 1032. (2015)). Once cells reached confluence, the cultures were taken to air-liquid interface (ALI) in PnuemaCult Maintenance media (StemCell Technologies) and maintained for 21-days. At day 21, cells were treated with 10 ng/ml recombinant human IL-13 (R&D systems) in the basolateral media for 4 days. To measure eotaxins secreted at the apical surface of ALI cultures. 300 μL warmed PBS was added to the surface of the cells. […]

A further experiment deals with eosinophils. In words: Cysteine cross-linking assay (BODIPY labeled cysteine exposed to eosinophils). Type of experiment: cell-based, human. The note with it: unstimulated and PMA-stimulated eosinophils; vs catalase-free control (FIG. 11H). The protocol:
Eosinophil Isolation and stimulation of respiratory burst: Eosinophils were purified from the peripheral blood of 4 atopic asthmatic subjects (age 48±23 years). Each subject donated 100 mL of blood on one or more occasions. All subjects signed consent forms and usage was approved by the UCSF Committee on Human Research. Eosinophils were isolated from whole blood using a three-step method in which we first pelleted the cells, followed by water lysis to remove red blood cells and finally eosinophils were purified using immunomagnetic beads (Human Eosinophil Isolation kit. Miltenyi Biotec). Briefly, whole blood was collected in EDTA (purple-top) tubs and pelleted at 1500 g for 15 minutes at 4° C. The plasma on top was removed and cell pellet retained for two cycles of water lysis. […]
Cysteine cross-linking assay: To explore cystine formation generated by eosinophil stimulation, BODIPY FL L-cysteine was generated from […] BODIPY FL L-Cystine (ThermoFisher Scientific) in Tyrode's Salts by reduction with one quarter volume packed TCEP-Gel (ThermoFisher Scientific) for 1 hour at 25° C. The reaction yields an 8 to 10-fold increase in fluorescence at 490 nm/520 nm Ex/Em. […] The decrease in fluorescence at 490 nm/520 nm Ex/Em was monitored over 2 hours at 37° C. on a Synergy H1 plate reader (BioTek Instruments) with the addition of 50,000 peripheral blood eosinophils in 100 μl Tyrode's Salts. […]

Regarding `CC(C)(C)NCC(O)c1ccc(O)c(CO)c1` (stereo not shown) [albuterol], the “patients with residual abnormalities in FEV1 (FEV1 <80% predicted) following maximum bronchodilator testing” value in experiment [1] (asthma patients with a high mucus score) is 73%. In addition, the “patients with residual FEV1 abnormalities after maximum bronchodilation testing” value in experiment [1] (asthma patients with a zero-mucus score) was found to be 20%. In addition, the “mean post-bronchodilator FEV1 in the high mucus group lower than in the zero-mucus group” value in experiment [1] (asthma patients, inhaled albuterol (540-720 mcg), high vs zero mucus group) amounted to 24%.

Consider `CC1(C)O[C@@H]2C[C@H]3[C@@H]4CCC5=CC(=O)C=C[C@]5(C)[C@@]4(F)[C@@H](O)C[C@]3(C)[C@]2(C(=O)CO)O1` [triamcinolone acetonide], for which the “patients with residual abnormalities in FEV1 following the SCRT” value in experiment [2] (asthma patients with high mucus scores, intramuscular 40 mg) came out at 72%. In addition, the “patients with residual FEV1 abnormalities following the SCRT” value in experiment [2] (asthma patients with zero mucus scores, intramuscular 40 mg) amounted to 28%. For the same compound, in experiment [2] (asthma patients, intramuscular 40 mg, high vs zero mucus group), the “mean post steroid FEV1 lower in the high-mucus group than the zero-mucus group” value is 21%. In addition, the “Sputum eosinophil % following treatment with intramuscular steroid” value in experiment [2] (patients with a high mucus score (FIG. 10A)) is recorded as “remains significantly increased”. Besides, the “Gene expression for interleukin 13 in sputum cells following treatment with intramuscular steroid” value in experiment [2] (patients with a high mucus score (FIG. 10B)) was “remains significantly increased”. In addition, the “Gene expression for interleukin 5 in sputum cells following treatment with intramuscular steroid” value in experiment [2] (patients with a high mucus score (FIG. 10C)) is “remains significantly increased”. The “FEV1% predicted post steroid treatment” value in experiment [2] (subjects with a high mucus score (FIG. 4B)) was “remained significantly decreased”. Further, in experiment [3], the “proportion of patients whose FEV1 remained below 80%” value is on record as “half”.

“IL-13: recombinant human IL-13 (R&D systems) used to stimulate airway epithelial cells”: in experiment [4], the “concentration of eotaxin-3 in apical mucus secretions” value is given as “marked increases”.

With catalase, the cystine dimer formation result with eosinophils was “significantly decreased”.
